Here are results for 8 compounds from patent US10500194B2, “Covalent small molecule DCN1 inhibitors and therapeutic methods using the same” (THE REGENTS OF THE UNIVERSITY OF MICHIGAN, priority 2017, dated 2019).

The target of assay [1] is T1, DCN1 (Homo sapiens (Human), UniProt Q96GG9). As to the kind of experiment: Mass spectroscopy of DCN1 protein incubations. In kind it is binding. The note with it: for ablation of the parent peak in the mass spectrum / major new peak (protein-inhibitor adduct) / mass of new peak (DCN1 plus inhibitor, loss of morpholinyl group): DCN1 380 μM, 1.2 fold excess of inhibitor, 4° C. overnight, Q-TOF; for difference from DCN1 Apo-protein mass: FIG. 2; for formation of a covalent bond with DCN1 protein: FIG. 2, mass-spectroscopic analyses. The method, then:
(§1) Human DCN1 (residues 58-259) were cloned into a pDEST17 plasmid containing an N-terminal His6 tag. DCN2 (residues 62-259), DCN3 (residues 86-304), DCN4 (residues 102-292) and DCN5 (residues 47-237) were cloned into an N-terminal His6-TEV expression vector. Pure proteins were derived from the same expression and purification protocols. Plasmids were transformed into Rosetta2 cells, the cells were grown in Terrific Broth at 37° C. to an O.D.600>1.0 and induced with 0.4 mM Isopropyl β-D-1-thiogalactopyranoside overnight at 20° C. The pelleted cells were resuspended in lysis buffer containing 25 mM Tris-HCl, pH 7.5, 200 mM NaCl and protease inhibitors, sonicated and centrifuged at 34,000×g for 45 minutes to remove debris. Cleared lysate was incubated with Ni-NTA resin (Qiagen) prewashed with lysis buffer, for 1 hr at 4° C. The matrix was loaded into a column then washed with 25 mM Tris-HCl, pH 7.5, 200 mM NaCl and 10 mM imidazole. Protein was eluted with 25 mM Tris-HCl, pH 7.5, 200 mM NaCl and 300 mM imidazole, concentrated and applied to a Superdex 75 (GE Healthcare) column pre-equilibrated with 25 mM Tris pH 7.5, 200 mM NaCl and 1 mM DTT. For DCN2-5, the N-terminal His6 tag was removed prior to gel filtration. Tag removal was achieved through incubation with TEV protease during overnight dialysis against 25 mM Tris pH 7.5, 200 mM NaCl and 1 mM DTT and a second Ni-NTA column. DCN2-5 proteins were stored at −80° C. in 1 mg/mL fractions containing 5% glycerol. The uncleaved DCN1 protein was stored at −80° C. without glycerol.
Recombinant DCN1 protein (380 μM) in 25 mM Tris 7.5, 200 mM NaCl, 1 mM DTT buffer was incubated with a 1.2 fold excess of selected DCN1 inhibitors at 4° C. for overnight. The reaction mixture was diluted with tenfold with water, and the protein was analyzed by Q-TOF mass spectroscopy. DCN1 untreated, or treated with previously described non-covalent inhibitors produced an isotope deconvoluted peak at 26.085.75 amus. Incubation under the described conditions with Examples 4, 7 and 9 led to 95-99% ablation of the parent peak in the mass spectrum, with a major (>90%) new peak appearing at 26588.96 amu (Dalton) for Example 4, 26604.34 amu for Example 7, and 26596.18 amu for Example 9. In each case this corresponds to addition of the inhibitor to the protein, coupled with the loss of the morpholinyl group, from the initial Michael adduct between the protein and the small molecule.

For assay [2], the target named is T1, DCN1. The experiment in a line: Competitive FP binding assay. The note with it: read-out: Binding affinity to DCN1 (IC50). The method, then:
The Fluorescence Polarization (FP) competitive binding assays were performed to accurately determine the binding affinities of our DCN1 inhibitors. A novel FAM labeled fluorescent probe compound (46) was designed and synthesized based on one of our potent small molecule DCN1 inhibitors. Equilibrium dissociation constants (Kd) values of 46 to both DCN1 and DCN2 proteins were determined from protein saturation experiments by monitoring the total FP values of mixtures composed with the fluorescent probe at a fixed concentration and proteins with increasing concentrations up to full saturation. Serial dilutions of proteins were mixed with 46 to a final volume of 200 μl in the assay buffer (100 mM phosphate buffer, pH=6.5, with 0.02% Tween-20 and 2% DMSO). Final probe concentration was 5 nM for both assays. Plates were incubated at room temperature for 30 minutes with gentle shaking to assure equilibrium. FP values in millipolarization units (mP) were measured using the Infinite M-1000 plate reader (Tecan U.S., Research Triangle Park, N.C.) in Microfluor 1 96-well, black, round-bottom plates (Thermo Scientific, Waltham, Mass.) at an excitation wavelength of 485 nm and an emission wavelength of 530 nm. Kd values of 46 were calculated by fitting the sigmoidal dose-dependent FP increases as a function of protein concentrations using Graphpad Prism 6.0 software (Graphpad Software, San Diego, Calif.).
as §1

The next assay deals with Nrf2 protein. The experiment in a line: Effect of covalent DCN1 inhibitors on Nrf2 protein level in mouse liver. Format: in vivo. The settings on record: single dose 25 mg/kg IP, C57BL/6 male mice, western blotting. How it is done:
Liver tissues harvested from C57BL/6 male mice treated with Example 9 (DI-1548) at 25 mg/kg via intraperitoneal (IP) injection were lysed with RIAP buffer. The expression level of Nrf2 protein was examined by western blotting. GAPDH was used a loading control.
The effect of several representative covalent DCN1 inhibitors (Examples 9, 21 and 22) on the level of Nrf2 protein in mouse liver was examined. Mice were administered with a single dose of Example 9 (DI-1548), Example 21 (DI-1859) or Example 22 (DI-1860) at 25 mg/kg, or phosphate-buffered saline (PBS), all via intraperitoneal (IP) injection. Mice were sacrificed at different time points and liver tissues were harvested for western blotting analysis for Nrf2 protein level. The data are shown in FIGS. 5, 6 and 7, respectively.

The subject of assay [3] is neddylation of cullin 3 and NRF2 protein in HepG2 cells. The experiment in a line: Western blotting of cullin neddylation and NRF2 in HepG2 cells. In kind it is cell-based. The settings on record: 20 h, compared with non-covalent inhibitor B. The method, then:
HepG2 cells were treated as indicated concentrations for 20 h, NRF2, Cullin 1, and Cullin 3 proteins were examined by western blotting. GAPDH was used as a loading control.
Treated cells were lysed by RIPA buffer supplemented with protease inhibitor. The expression level of indicated proteins was examined by western blotting analysis. GAPDH was used as a loading control. Antibodies were purchased: Cullin 1 (sc-11384), Cullin2 (sc-10781), CullinS (sc-13014) and Cullin7 (sc-134565) from Santa Cruz Biotech. (Santa Cruz, Calif.); Cullin 4A (PA5-14542), Cullin 4B (PA5-35239), Cullin9 (PA5-20277), DCN2 (DCUNID2, PA5-31607) and DCN3 (DCUNID3, PA5-44000) from ThermoFisher Scientific (Wayne, Mich.); Cullin 3 (2759), NRF2 (12721), HO-1 (70081), NQO1 (3187), Cyclin E (4129), Bim (2819), Keap1 (8047) and UBC12 (4913) from Cell Signaling Technology (Boston, Mass.); DCN1 (GWB-E3D700) from GenWay Biotech (San Diego, Calif.). Results are representative of three independent experiments.
(In western blotting, separated proteins are transferred to a membrane and probed.)

Assay [4] relates to APAP-induced liver injury. The experiment in a line: Protection of mice from acetaminophen-induced liver injury (blood ALT activity). Format: in vivo. The method, then: To induce acute liver injury, mice were administered a large dose (400 mg/kg) of APAP via intraperitoneal (I.P.) injection and were sacrificed 48 hr later. To examine the protective effect of DI-1859 (pretreatment), animals were I.P. injected with DI-1859 for three consecutive days (one day before APAP injection, three hours before APAP injection and a third dose on the next day after APAP injection). To examine the restorative effect of DI-1859 (post-treatment), mice were treated with DI-1859 three hours after APAP administration followed by two additional doses on the following two days. Two control groups of mice were treated with phosphate-buffered saline (PBS) or DI-1859, respectively. Blood sample collection was performed on each day.
The activity of alanine aminotransferase (ALT) in blood is a commonly used measurement clinically as a part of a diagnostic evaluation of liver injury, to determine liver health. Therefore, the blood ALT activity was measured using an ALT reagent set (Pointe Scientific Inc., Canton, Mich.). […] Furthermore, post-treatment of APAP with DI-1859 at 50 mg/kg reduces the APAP-induced elevated ALT level by approximately 50%.

T1 sequence (Q96GG9 58-259): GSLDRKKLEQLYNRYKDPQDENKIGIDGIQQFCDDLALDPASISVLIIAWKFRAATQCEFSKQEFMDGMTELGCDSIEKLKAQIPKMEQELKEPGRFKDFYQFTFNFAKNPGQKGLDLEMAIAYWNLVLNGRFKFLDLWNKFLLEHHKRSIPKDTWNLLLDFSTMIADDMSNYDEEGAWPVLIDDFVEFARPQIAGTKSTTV

For the compound `C=C(CN1CCOCC1)C(=O)NC[C@@H](NC(=O)[C@H](Cc1nc2ccc(Cl)cc2s1)NC(=O)CC)C1CCCCC1` [Example 4, N—((S)-2-((S)-3-(6-chlorobenzo[d]thiazol-2-yl)-2-propionamidopropanamido)-2-cyclohexylethyl)-2-(morpholinomethyl)acrylamide], at DCN1 [1], the “ablation of the parent peak in the mass spectrum” value (“ablation of the parent peak” for short) was 95-99%; the “major new peak (protein-inhibitor adduct)” value is given as above 90%; the “mass of new peak (DCN1 plus inhibitor, loss of morpholinyl group)” value turned out to be 26588.96 amu; the “difference from DCN1 Apo-protein mass” value is on record as 503.21 Da. Further, on DCN1 [1], the “formation of a covalent bond with DCN1 protein” value (from here on “formation”) is “formation of a covalent bond”. Moreover, the IC50 at DCN1 [2] was 41.6 nM.
Consider `C=C(CN1CCOCC1)C(=O)NC[C@H](Cc1ccccc1)NC(=O)[C@H](Cc1nc2ccc(C(C)C)cc2s1)NC(=O)CC` [Example 7, N—((S)-2-((S)-3-(6-prop-2-ylbenzo[d]thiazol-2-yl)-2-propionamidopropanamido)-3-phenylpropyl)-2-(morpholinomethyl)acrylamide], for which, on DCN1 [1], the “ablation of the parent peak” value was 95-99%; the “major new peak (protein-inhibitor adduct)” value was above 90%; the “mass of new peak (DCN1 plus inhibitor, loss of morpholinyl group)” value was found to be 26604.34 amu; the “difference from DCN1 Apo-protein mass” value is listed as 518.59 Da. In addition, the “formation” value on DCN1 [1] is listed as “formation of a covalent bond”. Moreover, the IC50 on DCN1 [2] was determined as 37.4 nM.
With `C=C(CN1CCOCC1)C(=O)NC[C@@H](NC(=O)[C@H](Cc1nc2ccc(C(C)C)cc2s1)NC(=O)CC)C1CCCCC1` [Example 9, N—((S)-2-((S)-3-(6-prop-2-ypbenzo[d]thiazol-2-yl)-2-propionamidopropanamido)-2-cyclohexylethyl)-2-(morpholinomethyl)acrylamide], at DCN1 [1], the “ablation of the parent peak” value was 95-99%; the “major new peak (protein-inhibitor adduct)” value was above 90%; the “mass of new peak (DCN1 plus inhibitor, loss of morpholinyl group)” value is listed as 26596.18 amu; the “difference from DCN1 Apo-protein mass” value was 510.81 Da. At DCN1 [1], the “formation” value was “formation of a covalent bond”. The “level of Nrf2 protein in mouse liver tissue” value (“level … in mouse liver tissue” below) in the assay with Nrf2 protein is listed as “effectively increases”. Further, in assay [3], the “increasing the level of NRF2 protein” value is given as “much stronger biological activity” and the “inhibition of neddylation of cullin 3” value is on record as “much stronger biological activity”. The IC50 on DCN1 [2] was 66.5 nM.
With `C=C(CN(C)C)C(=O)NC[C@@H](NC(=O)[C@H](Cc1nc2ccc(C(C)C)cc2s1)NC(=O)CC)C1CCCCC1` [Example 21, N—((S)-2-cyclohexyl-2-((S)-3-(6-isopropylbenzo[d]thiazol-2-yl)-2-propionamidopropanamido)ethyl)-2-((dimethylamino)methyl)acrylamide], the “reduction of APAP-induced elevated ALT level, post-treatment” value in assay [4] (APAP 400 mg/kg I.P., post-treatment at 50 mg/kg) is recorded as “approximately 50%”. Further, the “elevation of ALT activity by APAP, pretreatment” value in assay [4] (APAP 400 mg/kg I.P., pretreatment at 50 mg/kg) is “completely prevents”. For the same compound, the “elevated ALT activity induced by APAP, pretreatment” value in assay [4] (APAP 400 mg/kg I.P., pretreatment, dose-dependent) was “effectively reduces”. For the same compound, in assay [4] (pre- or post-treatment, APAP, FIG. 8), the “APAP-induced alanine aminotransferase (ALT) increase” value is on record as “effectively blocks or reduces”. The “level … in mouse liver tissue” value with Nrf2 protein is on record as “effectively increases”. In addition, the IC50 at DCN1 [2] was below 150 nM.
Take `C=C(CN(CC)CC)C(=O)NC[C@@H](NC(=O)[C@H](Cc1nc2ccc(C(C)C)cc2s1)NC(=O)CC)C1CCCCC1` [Example 22, N—((S)-2-cyclohexyl-2-((S)-3-(6-isopropylbenzo[d]thiazol-2-yl)-2-propionamidopropanamido)ethyl)-2-((diethylamino)methyl)acrylamide]: the “level … in mouse liver tissue” value in the assay with Nrf2 protein is listed as “effectively increases”. At DCN1 [2], the IC50 was below 150 nM.
Regarding `C=CC(=O)NC[C@@H](NC(=O)[C@H](Cc1nc2ccc(C(C)C)cc2s1)NC(=O)CC)C1CCCCC1` [Example 37, N—((S)-2-cyclohexyl-2-((S)-3-(6-isopropylbenzo[d]thiazol-2-yl)-2-propionamidopropanamido)ethyl)acrylamide], the IC50 on DCN1 [2] is below 200 nM.
Still for that read-out and setting: the value for `CCC(=O)N[C@@H](Cc1nc2ccc(C(C)C)cc2s1)C(=O)N[C@H](CNC(=O)CCl)C1CCCCC1` [Example 38, (S)—N—((S)-2-(2-chloroacetamido)-1-cyclohexylethyl)-3-(6-isopropylbenzo[d]thiazol-2-yl)-2-propionamidopropanamide] was below 150 nM.
For `CCC(=O)N[C@@H](Cc1nc2ccc(C(C)C)cc2s1)C(=O)N[C@H](CNC(=O)/C=C/CN1CCOCC1)C1CCCCC1` [Example 39, (E)-N—((S)-2-cyclohexyl-2-((S)-3-(6-isopropylbenzo[d]thiazol-2-yl)-2-propionamidopropanamido)ethyl)-4-morpholinobut-2-enamide], the IC50 at DCN1 [2] is below 150 nM.

One may read the IC50 as the concentration needed to halve the response being measured.
